Test results: PubChem BioAssay (NCI)
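Results reflect a 48-hour exposure of cells in 96-well plates to compound at five concentrations. The concentration for 50% growth inhibition is given as GI50. TGI: total growth inhibition.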

What was measured:
Experiment in all cases: NCI anticancer screen, dose series, 48 h
[1] = test system: IGROV1 ovarian
[2] = test system: SW-620 colon
[3] = test system: M14 melanoma
[4] = test system: SK-MEL-5 melanoma
[5] = test system: HL-60(TB) leukemia
[6] = test system: RPMI-8226 leukemia
[7] = test system: OVCAR-4 ovarian
[8] = test system: DU-145 prostate
[9] = test system: SF-268 CNS
[10] = test system: EKVX NSCLC

Structure (SMILES) | GI50 [1] [µM] | TGI [1] [µM] | GI50 [2] [µM] | TGI [2] [µM] | GI50 [3] [µM] | TGI [3] [µM] | GI50 [4] [µM] | TGI [4] [µM] | GI50 [5] [µM] | TGI [5] [µM] | GI50 [6] [µM] | TGI [6] [µM] | GI50 [7] [µM] | TGI [7] [µM] | GI50 [8] [µM] | TGI [8] [µM] | GI50 [9] [µM] | TGI [9] [µM] | GI50 [10] [µM] | TGI [10] [µM]
COc1ccc2sc3cccc(NCCN(C)C)c3c(=O)c2c1 | 3.35 | 11.6 | 2.07 | 5.57 | 2 | 4.1 | 2.45 | 6.27 | 2.16 | 4.74 | 2.22 | 5.16 | 3.72 | 16.5 | 4.02 | 13.5 | 3.81 | 14.4 | – | –
CSC1=Nc2c(c(C)c(-c3ccccc3)n2CCCN2CCCCC2)C2=NC(=O)C[C@H](C)N12 | 2.25 | 13.5 | 2.99 | 18.2 | 3.68 | 16.1 | 1.99 | 4.64 | 2.51 | > 19.8 | 0.505 | 2.25 | 3.21 | 37.7 | 4.01 | > 52.4 | 3.96 | 21.9 | 3.06 | > 44.7
CC(=O)Nc1ccc(/C=c2\sc3nnc(CCC(=O)Nc4ccccc4Cl)n3c2=O)cc1 | – | > 100 | – | 87.5 | – | 35.8 | – | 68.2 | – | 41 | – | 45.2 | – | 43 | – | – | – | 88 | – | > 100
O=C(COc1ccc(/C=C2\COc3ccccc3C2=O)cc1)Nc1nccs1 | – | – | 3.22 | 10.2 | 6.71 | 20 | 12.8 | 26.7 | 1.68 | 3.48 | 2.25 | 6.28 | 20.5 | 68.5 | 4.8 | 14.8 | 6.81 | 21.7 | 22.4 | 76.3
COC1=CC(c2ccc[nH]2)=N/C1=C\c1[nH]c(C)c(CC(=O)OCc2ccccc2)c1CCC(=O)OCc1ccccc1 | 0.4 | 2.55 | 0.345 | 2.43 | 0.223 | 0.573 | – | – | 0.49 | 2.66 | 0.234 | 0.76 | 0.358 | 17.6 | 0.438 | 12.1 | 0.464 | – | 0.349 | 4.13
O=C1c2[nH]cc(CNC3CN4CCC3CC4)c2C(=O)c2c1c(O)c1ccccc1c2O (stereo not given) | 1.33 | 3.84 | 0.117 | 0.399 | 3.11 | 11.7 | 11.9 | 31.5 | – | – | 1.46 | 4.15 | 16.3 | 55.7 | 0.714 | 7.21 | 12.6 | 68.4 | 16.1 | 33.1
OC(c1cc(-c2cccc(Cl)c2)nc2ccccc12)C1CCCCN1 (stereo not given) | 1.69 | 3.21 | – | – | 1.91 | 3.74 | – | – | 1.72 | 4.22 | 2.68 | 6.45 | – | – | 1.76 | 3.15 | 1.57 | 2.97 | 1.45 | 2.94
CC[C@H]1CN2CCc3cc(OC)c(OC)cc3C2C[C@@H]1CC1NCCc2cc(OC)c(OC)cc21 (stereo not given in full) | – | 0.407 | – | 0.238 | – | 0.0487 | – | 0.0928 | 0.0204 | 0.144 | – | 0.128 | – | 0.0481 | – | 0.105 | – | – | – | 0.136
CC(=O)Nc1ccccc1-c1nc2ccccc2nc1C | – | > 100 | – | > 100 | – | > 100 | – | > 100 | – | > 100 | – | > 100 | – | > 100 | – | – | – | > 100 | – | > 100
CC1=C(O)c2cn(C)cc2C(=O)C1=O | – | > 100 | – | > 100 | – | > 100 | – | > 100 | – | > 100 | – | > 100 | – | > 100 | – | – | – | > 100 | – | > 100
COC(=O)C(=O)C(C(=O)C(=O)Nc1cccc(C(C)=O)c1)c1nc2ccc([N+](=O)[O-])cc2[nH]c1=O (stereo not given) | – | > 100 | – | > 100 | – | > 100 | – | > 100 | – | > 100 | – | > 100 | – | > 100 | – | – | – | > 100 | – | > 100
COC(=O)C1=Cc2cc(OC)c(OC)c(OC)c2[C@H](c2cc(OC)c(OC)c(OC)c2)C1C(=O)OC (stereo not given in full) | – | > 100 | – | > 100 | – | > 100 | – | > 100 | – | > 100 | – | > 100 | – | > 100 | – | – | – | > 100 | – | > 100
Nc1c(C(=O)c2ccc(-c3cccnc3)cc2)cnn1-c1ccc(F)cc1 | 24.3 | > 25 | > 22.4 | > 25 | > 25 | > 25 | > 15.2 | > 25 | > 13.8 | > 25 | > 17.5 | > 25 | 8.41 | > 24 | > 25 | > 25 | > 15.8 | > 25 | – | –
C=C=C(C(=O)OC)S(=O)c1ccccc1[N+](=O)[O-] (stereo not given) | – | > 100 | – | > 100 | – | > 100 | – | > 100 | – | > 100 | – | > 100 | – | > 100 | – | – | – | > 100 | – | > 100
CCOC(=O)C1=C(C)N=c2s/c(=C\c3ccccc3O)c(=O)n2C1c1ccc(OC)c2ccccc12 (stereo not given) | 21.4 | 75 | 16.6 | > 100 | – | – | 15.6 | 64.8 | 38.6 | > 100 | 5.39 | 31.2 | 2.01 | 5.18 | 8.3 | 32 | 6.23 | 25.5 | – | –
C=C(C)C1CC/C(C)=C/CCC2(C)OC2CC/C(CO)=C\C1O (stereo not given) | – | > 100 | – | > 100 | – | > 100 | – | – | – | > 100 | – | > 100 | – | > 100 | – | > 100 | – | > 100 | – | > 100
COc1cc(/C=C2\C[C@H]3[C@@H]4CC=C5C[C@@H](O)CC[C@]5(C)[C@H]4CC[C@]3(C)[C@H]2O)ccc1OCCN1CCCC1 | 17.5 | > 50 | 23.7 | > 50 | 8.16 | 18.3 | 9.58 | 23.6 | 9.96 | 19 | 5.53 | 25.5 | – | – | 5.04 | 14.4 | 9.72 | 22.8 | 0.104 | 7.38
